Entries after “also recorded” stand apart in the source; their conditions may differ.
Columns and labels:
h9c2 cells [1] = experiment: Mitochondrial ATP level (Mitochondrial ToxGlo assay); format: cell-based; details: h9c2 cells, 0, 3 or 10 μM NPS A for 1 hour
Experimental: Furthermore, mitochondrial ATP levels were measured using the Mitochondrial T ToxGlo™ assay (Promega, Madison, Wis., USA) according to the manufacturer's instructions.
Briefly, h9c2 cells were dispensed at 2×10^6 cells/well in a 60 mm tissue culture plate and cultured for 16 hours and treated with 0, 3, or 10 μM NPS A for 1 hour. The treated cells were all collected and resuspended by pipetting until the cells were uniformly dispersed. The resuspended h9c2 cells were dispensed at 2×10^4 cells/well in a 96-well plate and the plates were centrifuged at 200×g for 10 minutes to remove the medium. Thereafter, 50 μL of fresh medium (except for glucose, containing 10 mM galactose) was added.
The cells were incubated in a humidified incubator at 37° C. supplied with CO2 for 90 minutes. Then, the assay solution (100 μL) was added to the plate and reacted at room temperature for 30 minutes. Luminescence was measured using a luminometer (Molecular Device, Sunnyvale, Calif., USA).

h9c2 cells [2] = experiment: Glycolysis activity, capacity and reserve with XF24 analyzer; format: cell-based; details: 10 μM NPS A compared to 20 μM or 30 μM, 1 hour
Experimental: After treating h9c2 cells with NPS A, the glycolysis activity, the glycolysis capacity and the glycolysis reserve were confirmed using an XF24 analyzer.
h9c2 cells were treated sequentially with 10 mM glucose (G), 1 μM oligomycin (O) and 10 mM 2-dioxyglucose (2DG), treated with NPS A for 1 hour and then measured with an XF24 analyzer.

[3] = biological target: mTOR (mammalian target of rapamycin) (Homo sapiens, UniProt P42345); experiment: Kinase screening and dose-dependence, mTOR; format: biochemical
Experimental: (§1) First, kinases regulated by NPS A were screened using a set of kinases related to cardiovascular diseases and diabetes.
(§2) The activity of GSK-3 alpha, GSK-3 beta and mTOR kinase regulated by NPS A was measured to determine the half maximal inhibition dosage.

h9c2 cells [4] = experiment: MTT toxicity assay in h9c2 myocardial cells; format: cell-based; details: 24 hours treatment
Experimental: In h9c2 cells, myocardial cells, the toxicity of NPS A extracted from Neopetrosia sp. Of Example 1 was confirmed.
The h9c2 cells were dispensed at 2×10^4 cells/well in a 96-well tissue culture plate and cultured for 16 hours. Thereafter, various concentrations of NPS A were treated and cultured for additional 24 hours.
After the culture, a quantitative colorimetric assay using MTT(3-(4,5-dimethylthiazol-2-yl)-2,5-diphenyltetrazolium bromide (Sigma-Aldrich, St. Louis, Mo., USA) was performed to confirm the survival rate of the cells.
The degree of reduction of MTT to intracellular formazan was confirmed by measuring the optical density at 570 nm using a microplate reader (Molecular device, Sunnyvale, Calif., USA).

[5] = tested on: ischemic reperfusion heart model; experiment: Ischemic reperfusion heart model (Langendorff perfused rat heart); format: in vivo, SD rats
Experimental: 8-week-old male SD rats (200-250 g) were anesthetized by intraperitoneal injection of sodium pentobarbital (100 mg/kg). The chest cavity was exposed and a glass cannula was inserted into the aorta. The heart was quickly cut into thoracotomy, perfused with a normal Tyrode's solution in a Langendorff system and equilibrated with 95% O2 and 5% CO2 at 37° C. for 10 min to remove all blood. The heart of the rat was extirpated and the experiment was performed using a non-circulating system. First, ischemic reperfusion (I/R) model and drug treatment group (NPS A treatment; NPS A 10 μM treatment after ischemia reperfusion) were performed and hypoxic solution was flowed for 30 minutes. After 30 minutes, the normal tyrode solution and NPS A were treated together to restore cardiac function and confirm changes in electrocardiogram. […] After global ischemia (initiating reperfusion), 10 μM of NPS A was administered for 30 minutes.

[6] = Solubility of NPS A in water and organic solvents; format: physicochemical
[7] = tested on: mitochondria extracted from the heart of rats; experiment: Oxidative phosphorylation in mitochondria extracted from NPS A-treated rat heart; details: mitochondria of I/R rat heart, NPS A treatment
GSK-3β = GSK-3β (Homo sapiens, UniProt P49841); experiment: Kinase screening and IC50 determination, GSK-3β; format: biochemical
Sequence of GSK-3β (P49841 whole entry, species assumed): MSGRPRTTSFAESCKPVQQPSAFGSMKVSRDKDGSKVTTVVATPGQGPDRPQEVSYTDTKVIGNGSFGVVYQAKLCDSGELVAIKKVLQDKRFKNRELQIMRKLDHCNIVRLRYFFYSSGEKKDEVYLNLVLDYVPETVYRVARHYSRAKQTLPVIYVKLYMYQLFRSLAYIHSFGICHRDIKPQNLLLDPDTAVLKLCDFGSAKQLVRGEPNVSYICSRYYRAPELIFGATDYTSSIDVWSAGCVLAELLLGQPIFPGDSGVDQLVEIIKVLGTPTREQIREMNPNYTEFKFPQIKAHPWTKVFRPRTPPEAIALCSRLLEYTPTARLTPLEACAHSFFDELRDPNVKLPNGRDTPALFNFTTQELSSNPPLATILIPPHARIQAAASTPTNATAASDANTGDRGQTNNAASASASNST
Experimental: as §1, §2

[8] = biological target: GSK-3α (Glycogen synthase kinase-3α) (Homo sapiens, UniProt P49840); experiment: Kinase screening and IC50 determination, GSK-3α; format: biochemical
Sequence of GSK-3α (Glycogen synthase kinase-3α) (P49840 whole entry, species assumed): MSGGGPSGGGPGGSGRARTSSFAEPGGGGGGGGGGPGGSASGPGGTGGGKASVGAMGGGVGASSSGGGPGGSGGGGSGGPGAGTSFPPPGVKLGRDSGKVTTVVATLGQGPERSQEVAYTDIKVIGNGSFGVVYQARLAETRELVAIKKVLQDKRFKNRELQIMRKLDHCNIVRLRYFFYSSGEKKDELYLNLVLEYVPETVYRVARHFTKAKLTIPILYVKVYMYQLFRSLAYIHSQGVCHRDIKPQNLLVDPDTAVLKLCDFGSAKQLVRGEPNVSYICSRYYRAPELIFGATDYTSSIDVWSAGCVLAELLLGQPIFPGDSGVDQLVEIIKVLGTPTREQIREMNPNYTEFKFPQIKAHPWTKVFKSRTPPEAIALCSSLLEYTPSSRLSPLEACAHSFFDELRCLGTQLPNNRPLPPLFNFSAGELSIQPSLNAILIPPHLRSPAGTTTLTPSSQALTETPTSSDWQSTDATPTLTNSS
Experimental: as §1, §2

[9] = tested on: candidate kinases of the first type (cardiovascular diseases); experiment: Kinase screening, set of kinases related to cardiovascular diseases; format: biochemical
Source text: as §1

h9c2 cells [10] = experiment: Oxygen consumption rate (OCR) / ECAR measurement with XF24 analyzer; format: cell-based
Experimental: For this, the basal oxygen consumption rate (OCR), respiratory related to ATP (adenosine triphosphate), proton leak, maximal capacity and mitochondrial OCR were confirmed.
First, to measure OCR, h9c2 cells were dispensed at 2×10^4 cells/well in an XF24 cell plate (Seahorse Bioscience, Billerica, Mass., USA) and cultured for 16 hours. Thereafter, cells were dispensed with various concentrations of NPS A and cultured for another one hour. After 1 hour, the medium was replaced with 500 μL of XF assay medium-modified DMEM (XF Assay Medium-modified DMEM, Seahorse Bioscience, Billerica, Mass., USA) and incubated for 1 hour in a incubator at 37° C. in absence of CO2.
OCR was measured using an XF24 analyzer (Seahorse Bioscience, Billerica, Mass., USA) and XF24 software. After OCR measurement, the XF 24 assay results were normalized to the cell number and the number of cells in each well was counted by a Luna™ automated cell counter (Logos, Annandale, Va., USA).

[11] = kinase screening, kinases related with diabetes

mTOR activity according to doses of NPS A ([3]; different doses of NPS A): no change
kinase screening result, mTOR [3, 11]: inhibited
solubility in other organic solvents ([6]; other organic solvents): not well soluble
solubility in pyridine and methanol ([6]; pyridine and methanol): dissolves in pyridine and methanol
solubility in water ([6]; water): dissolves in water
IC50 (GSK-3β): 124 µM
kinase screening result, GSK-3β (GSK-3β; [11]): inhibited
IC50 [8]: 140 µM
kinase screening result, GSK-3α [8, 11]: inhibited
Structure (SMILES): O=C([O-])c1ccc[n+](C2OC(COC(=O)c3ccc(O)cc3)C(O)C2O)c1 (centres unmarked) [NPS A, Neopetroside A]
ATP synthesis (h9c2 cells [1]): stimulates; also recorded: up-regulated
intracellular ATP levels (h9c2 cells [1]): increases
glycolysis activity (h9c2 cells [2]): greatest
glycolysis capacity (h9c2 cells [2]): greatest
concentration up to which not toxic to the myocardial cells (MTT survival) (h9c2 cells [4]): ≤ 300 µM
cardiac rhythm ([5]; 10 μM NPS A during reperfusion): recovered
size of the heart infarction ([5]; 10 μM NPS A during reperfusion): significantly reduced
left ventricular pressure (LV pressure) ([5]; 10 μM NPS A for 30 minutes during reperfusion after 30 minutes global ischemia): effectively restored
respiratory control ratio (RCP) [7]: recovered
three-stage respiratory depression in mitochondria (OCR) [7]: significantly protected
regulation of candidate kinases of the first type [9]: did not regulate most
OCR/ECAR ratio (h9c2 cells [10]): increased
basal ECAR (extracellular acidification rate) (h9c2 cells [10]): increased
basal OCR (h9c2 cells [10]; 1 hour treatment): up-regulated; also recorded: increased
mitochondrial OCR (h9c2 cells [10]; 1 hour treatment): up-regulated
oxidative phosphorylation (h9c2 cells [10]; 1 hour treatment): up-regulated
respiration associated with ATP (h9c2 cells [10]; 1 hour treatment): up-regulated
